Data on two compounds can be found in patent publication US6903104B2, “Indol-3-YL-2-oxoacetamide compounds and methods of use thereof” (National Health Research Institutes, priority 2001, dated 2005).

Assay [1] deals with colorectal DLD1 cancer cells. Nature of the assay: In vitro cytotoxicity MTS assay, colorectal DLD1. The class given is cell-based, human. The settings on record: 72 hours. On the procedure: (§1) A panel of human cancer cells, gastric NUGC3 and HR, nasopharyngeal HONE1, hepatocellular HEP G2 and HA-22T, colorectal DLD1, lung A549, prostate PC3, breast MCF7 and its adriamycin-resistant MCF7/ADR subline, uterus MES-SA and its adriamycin-resistant MES-SA/Dx5 subline, is purchased from Food Industry Research and Development Institute, Hsinchu, Taiwan R.O.C. or American Type Culture Collection, Manassas, Va. U.S.A., are used in in vitro cytotoxicity assays. The human cells are seeded at a cell density of 3000 or 4500 cells/100 μl/well in 96-well flat-bottom plates and incubated for 24 hours at 37° C. in a 5% CO2 incubator. The testing compounds are dissolved in dimethyl sulfoxide (DMSO) and further diluted into the culture medium for treatments of human cancer cells in vitro. The drug-containing media has a final DMSO concentration of ≦0.3%. The compounds of this invention are prepared in culture media for testing at a range of concentrations from 10, 1, 0.1, 0.01 to 0.001 μM. Each compound solution is (200 μl/well in duplicate) in the cell plates and is treated for 72 hours at 37° C., 5% CO2 in an incubator. Actinomycin D at 5 μM and 0.3% DMSO are used as the positive and vehicle controls, respectively. A colorimetric assay using 3-(4,5-dimethylthiazol-2-yl)-5-(3-carboxymethoxyphenyl)-2-(4-sulfophenyl)-2H-tetrazolium (MTS) and phenazine methosulfate (PMS) is used to determine the potency of the compounds. This assay measures cell viability based on the cellular activity in conversion of a tetrazolium salt into a colored soluble formazan product. The optical density (OD) values are measured at 490 nm with a 1420 multilabel counter VICTOR® from Wallac, Turku, Finland. All of the measured values are subtracted with that of the blank control wells without cells before further calculations. The efficacy data are expressed as a percentage normalized to the vehicle controls as calculated in the following formulae. Inhibitory potency (% of vehicle control)=[(OD490compound−OD490blank)/(OD490vehicle−OD490blank)]×100%. The concentration (IC50) of a test compound that inhibits 50% of the cellular activity is determined.
Background: Tetrazolium assays rely on reduction of a dye to a coloured formazan, in cell work by metabolically active cells.

Assay [2] relates to hepatocellular HA-22T cancer cells. Nature of the assay: In vitro cytotoxicity MTS assay, hepatocellular HA-22T. The conditions noted are these: 72 hours. The class given is cell-based, human. On the procedure:
as §1

The test system of assay [3] is hepatocellular HEP G2 cancer cells. Nature of the assay: In vitro cytotoxicity MTS assay, hepatocellular HEP G2. The conditions noted are these: 72 hours. The format is cell-based, human. On the procedure:
as §1

For assay [4], the system named is nasopharyngeal HONE1 cancer cells. Nature of the assay: In vitro cytotoxicity MTS assay, nasopharyngeal HONE1. The conditions noted are these: 72 hours. The format is cell-based, human. As for the experimental part:
as §1

Assay [5] relates to gastric NUGC3 cancer cells. As to the kind of experiment: In vitro cytotoxicity MTS assay, gastric NUGC3. The settings on record: 72 hours. The class given is cell-based, human. As for the experimental part:
as §1

In assay [6] the test system is lung A549 cancer cells. As to the kind of experiment: In vitro cytotoxicity MTS assay, lung A549. The format is cell-based, human. The conditions noted are these: 72 hours. As for the experimental part:
as §1

Assay [7] deals with adriamycin-resistant MES-SA/Dx5 subline. As to the kind of experiment: In vitro cytotoxicity MTS assay, adriamycin-resistant MES-SA/Dx5. The class given is cell-based, human. The conditions noted are these: 72 hours. On the procedure: as §1
Assay [8] concerns rat aorta endothelial cells. Nature of the assay: Rat aorta tube formation assay (angiogenesis inhibition). The class given is cell-based, Spraque-Dawley rats. Set-up: key: Noninhibitors are indicated by the symbol (−), meaning that the extent of endothelial cell growth is essentially at the same level as that of the control; The most potent inhibitors receive a score of (+++++), indicating essentially no measurable endothelial cell growth. The settings on record: 5 days. On the procedure: The procedures are modified from previous reports (Burbridge and West 2001; Bauer et al. 2000; Nicosai and Ottinetti 1990a) and described as follows. Male Spraque-Dawley rats of 6-8 weeks old are purchased from the National Laboratory Animal Breeding and Research Center (Taipei, Taiwan). The animals are anesthetized with urethane (2 g/kg, intraperitoneal) and the thoracic aortas are quickly harvested in a laminar flow hood. The aortas are rinsed with ice-cold normal saline with 10 μg/ml gentamicin and the attached fibroadipose tissues are removed using micro-dissection scissors. The aortas are cross-sectioned into rings of 1 mm in thickness. A mixture of Matrigel®, purchased from BD Biosciences, solution and the EBM-II medium, purchased from BioWhittaker Inc., (1:1) with 2% FBS, 0.25 mg/ml, amphotericin B and 10 μg/ml gentamicin is prepared and added at 100 μl to each well of a 48-well plate. The mixture is allowed to gel at 37° C. Aorta rings are then placed onto the gelled matrix and embedded in an additional 150 μl per well of the mixture solution and allowed to gel at 37° C. The aorta rings are then covered with 125 μl of the EGM-II medium and incubated overnight in humidified incubator with 5% CO2/95% air at 37° C. After removal of the EGM-II from the established aorta cultures, the compound-containing media are applied at 300 μl per well to the cultures and then incubated in 5% CO2/95% air at 37° C. for 5 days. The cultures are then subject to the 3-[4,5-dimethylthiazol-2-yl]-2,5 diphenyl-2H-tetrazolium bromide (MTT) or 3-(4,5-dimethylthiazol-2-yl)-5-(3-carbomethoxyphenyl)-2H-tetrazolium (MTS) assay and OD490 nm values measured. The testing compounds are dissolved in dimethyl sulfoxide (DMSO) and prepared in EBM-II media with at a final concentration of DMSO less than 0.1%.
The capillary-like, tube structure of the outgrown rat aorta endothelial cells is easily visualized by MTT staining. The medium on top of the matrix is removed from the established aorta ring cultures. MTT solution of 5 mg/ml in saline is added to the cultures at 100 μl/well and the cultures are incubated in a CO2 incubator at 37° C. for 24 hr. The stained cultures are then examined under a microscope DMIRB from Leica and photos taken with a digital camera.
Inhibition activity is also assessed in the following manner. The reductive reaction of MTS initiated by the viable cellular mitochondrial activity is used as a basis for the measurement of cell viability (Cory et al. 1991; Gieni et al. 1995). To the rat aorta ring cultures 300 μl of a solution containing 100 μg MTS and 1 μg, phenazine methosulfate is added per well and incubated in 5% CO2/95% air at 37° C. for 24 hr. During the incubation, MTS is converted to formazan product. At the end of incubation, the solution overlaying the gel is well-mixed and 100 μl aliquots are transferred into a 96-well plate for measurement of OD490 nm with a spectrophotometer VICTOR™-II from Wallac Oy.
The compounds listed in Table 3 are screened for angiogenesis inhibition. The control compound, ASTA, is D-24851, N-[pyridin-4-yl]-[1-(4-chlorobenzyl)-indol-3-yl]-glyoxylic acid amide. Noninhibitors are indicated by the symbol (−), meaning that the extent of endothelial cell growth is essentially at the same level as that of the control.

One may read the IC50 as the concentration that inhibits the measured activity by half.

As for `Cc1cc(Cn2cc(C(=O)C(=O)Nc3cc(C)ns3)c3ccccc32)on1` [Compound 56], the IC50 in assay [1] turned out to be 41 nM; in assay [2] it was 123 nM; in assay [3], 93 nM; in assay [4] it was 4 nM; in assay [5], 12 nM; in assay [6] it was 557 nM. Further, in assay [7], it took 368 nM to reach half-maximal inhibition (IC50). Moreover, the entries for the “Inhibition Score” value in assay [8] (final conc. 0.3 μg/ml) and in assay [8] (final conc. 1 μg/ml) were “+++++” and “−”, respectively.
`Cc1cc(NC(=O)C(=O)c2cn(Cc3ccc(C#N)cc3)c3ccccc23)sn1` [Compound 25]: the concentration for half-maximal inhibition (IC50) in assay [1] was 543 nM; in assay [2], 692 nM; in assay [3], 1790 nM; in assay [4], 207 nM; in assay [5] it was 514 nM; in assay [6] it was 545 nM. In assay [7], the concentration for half-maximal inhibition (IC50) turned out to be 398 nM. Moreover, the “Inhibition Score” value in assay [8] (final conc. 0.3 μg/ml) is recorded as “+++++”.
